In patent US20200022967A1, “Use of 2-carboxamide cycloamino urea derivatives in the treatment of EGFR dependent diseases or diseases that have acquired resistance to agents that target EGFR family members” (Novartis AG, priority 2010, published 2020):

What was measured:
BT474 = assay: Cell proliferation in BT474 breast cancer model; assay type: cell-based, human
HCC1954 = assay: Cell proliferation in HCC1954 breast cancer model; assay type: cell-based
NCI-N87 tumors [1] = assay: NCI-N87 subcutaneous gastric cancer xenograft, antitumor activity (Example 2); assay type: in vivo, mice; details: 50 mg/kg p.o. once daily
Experimental: Experiments were performed in female HsdNpa:Athymic Nude-nu mice approximately 8-12 weeks of age at treatment start. All animals were housed under Optimized Hygienic conditions in Makrolon type III cages (max. 10 animals per cage) with free access to food and water.
NCI-N87 cells (obtained from the American Type Culture Collection), which are of gastric origin and ErbB2 amplified, were grown in DMEM culture medium containing 4.5 g/l glucose supplemented with 10% heat-inactivated FCS, 2 mM L-glutamine, and 1 mM sodium pyruvate. The cells were incubated at 37° C. in a 5% CO2 humidified atmosphere. Cells were harvested with trypsin (0.25% w/v)-EDTA (0.53 mM), re-suspended in culture medium (with additives) and counted with a Casy® system. Cell culture reagents were purchased from BioConcept (Allschwil, Switzerland).
NCI-N87 tumors were established from fragments of approximately 40 mg implanted subcutaneously into the female HsdNpa:Athymic Nude-nu mice with a trocar needle. Treatment started when the tumors reached a size of approximately 110 mm^3, 25 days post implantation.
The Compound was fully dissolved in NMP. Then, PEG300 and liquified Solutol were added (in sequence with vortexing after addition of each reagent). Water was added immediately prior to administration to the animals.
(§1) Tumor volumes were measured with calipers and determined according to the formula: length×diameter^2×π/6. […] Regressions (%) were calculated according to the formula ((mean tumor volume at end of treatment-mean tumor volume at start of treatment)/mean tumor volume at start of treatment)×100. Body weights and tumor volumes were recorded twice a week.
Where applicable, data is presented as mean±SEM. For all tests, the level of significance was set at p<0.05. For tumor volumes, comparisons between treatment groups and vehicle control group were done using one-way ANOVA followed by Dunnett's test. The level of significance of body weight change within a group between the start and the end of the treatment period was determined using a paired t-test. […]

[2] = Body weight change in NCI-N87 xenograft mice (Example 2); assay type: in vivo; details: 50 mg/kg p.o. once daily; not significant
Experimental: as §1
(§2) Where applicable, data is presented as mean±SEM. For all tests, the level of significance was set at p<0.05. For tumor volumes, comparisons between treatment groups and vehicle control group were done using one-way ANOVA followed by Dunnett's test. The level of significance of body weight change within a group between the start and the end of the treatment period was determined using a paired t-test. Comparisons of delta body weights between treatment and vehicle control groups were performed by a one-way ANOVA followed by a post hoc Dunnett's test.

[3] = Body weight in BT474 combination study (Example 3); assay type: in vivo, mice; details: Compound A 50 mg/kg p.o. daily, single agent; significant
Experimental: as §1, §2

NCI-N87 tumors [4] = assay: NCI-N87 xenograft in CB17 SCID mice, Compound A alone and with trastuzumab (Example 4); assay type: in vivo
Experimental: Experiments were performed in female CB17 SCID mice (Fox Chase SCID®, CB17/lcr-Prkdc^scid, Charles River) approximately 7-8 weeks of age and having a body weight (BW) range of 14.7-21.2 g at treatment start. All animals were fed ad libitum water (reverse osmosis, 1 ppm CI) and NIH 31 Modified and Irradiated Lab Diet® consisting of 18.0% crude protein, 5.0% crude fat, and 5.0% crude fiber. The mice were housed on irradiated Enrich-O'cobs™ Laboratory Animal Bedding in static microisolators on a 12-hour light cycle at 21-22° C. and 40-60% humidity.
NCI-N87 cells (obtained from the American Type Culture Collection), which are of gastric origin and ErbB2 amplified, were maintained as exponentially growing cultures in RPMI-1640 medium supplemented with 10% fetal bovine serum, 2 mM glutamine, 100 units/mL penicillin G sodium, and 100 μg/mL streptomycin sulfate. The tumor cells were cultured in tissue culture flasks in a humid incubator at 37° C., in an atmosphere of 5% CO2 and 95% air. Cells were harvested with 1× trypsin and suspended at a concentration of 5×10^7 cells/mL in cold phosphate-buffered saline with 50% Matrigel. Each mouse was injected subcutaneously in the right flank with 1×10^7 cells (0.2 mL cell suspension). Tumor volumes were measured with calipers and determined according to the formula: width^2×length/2, and tumor weight estimated with the assumption that 1 mg is equivalent to 1 mm^3 of tumor volume. Nine days after tumor implantation (on Day 1 of the study), mice with individual tumor volumes of 126-320 mm^3 were sorted into 12 groups of eight mice with a group mean tumor volume of 231-239 mm^3.
Compound A was formulated in NMP/PEG300/Solutol HS15/deionized water (10:30:20:40% vol/vol). The Compound was fully dissolved in NMP. Then, PEG300 and liquified Solutol were added (in sequence with vortexing after addition of each reagent). Water was added prior to administration to the animals. Fresh dosing solutions were prepared weekly and stored at 4° C., protected from light.
Treatments started 9 days post tumor cell implantation and lasted for 30 consecutive days (or until tumor volume=2000 mm^3).
Where applicable, data is presented as mean±SEM. Statisticial and graphical analyses was performed with Prism 3.03 (GraphPad) for Windows. For all tests, the level of significance of differences was done using ANOVA, with Bartlett's test; and a post-hoc Dunnett's multiple comparison test compared the mean change for each drub-treated group to the mean for Group 1. […] The significance of differences between the median volume changes for drug-treated groups and Group 1 was analyzed post hoc with Dunn's multiple comparison test. The two-tailed statistical analyses were conducted at P=0.05. Prism summarizes test results as not significant (ns) at P>0.05, significant (symbolized by “*”) at 0.01<P≤0.05, very significant (symbolized by “**”) at 0.001<P≤0.01, and extremely significant (symbolized by “***”) at P≤0.001.

[5] = Body weight nadir and deaths in NCI-N87 lapatinib study (Example 6)
Experimental: Treatments started eight days post tumor cell implantation and lasted for 59 consecutive days or until tumor volume=1000 mm^3. […] For the b.i.d. dosing schedule, the first dose was given p.m. on Day 1 and last dose a.m. on Day 22. […] Body weights were recorded on Days 1-5, on each treatment day (except weekends), and twice weekly thereafter until end of the study.

[6] = Group 2 (8 animals): Compound A 12.5 mg/kg p.o. once daily
[7] = Group 3 (6 animals): Compound A 25 mg/kg p.o. once daily
[8] = Group 4 (4 animals): Compound A 50 mg/kg p.o. once daily, stopped early
[9] = Group 2: Compound A 12.5 mg/kg p.o. once daily
[10] = Group 3: Compound A 25 mg/kg p.o. once daily

In the case of `Cc1nc(NC(=O)N2CCC[C@H]2C(N)=O)sc1-c1ccnc(C(C)(C)C(F)(F)F)c1` [Compound A, (S)-Pyrrolidine-1,2-dicarboxylic acid 2-amide 1-({4-methyl-5-[2-(2,2,2-trifluoro-1,1-dimethyl-ethyl)-pyridin-4-yl]-thiazol-2-yl}-amide)], the cell death (BT474; BT474, overexpressed ErbB2) is reported as “induces cell death”, the GI50 (BT474; BT474 breast cancer model, ErbB2 amplified, read-out: median GI50) is reported as 0.139 ± 0.082 µM and the cell death (HCC1954; HCC1954, overexpressed ErbB2) is reported as “induces cell death”. The GI50 (HCC1954; HCC1954 breast cancer model, read-out: median GI50) was 0.687 ± 0.132 µM, the regression (NCI-N87 tumors [1]) was 11% and the “antitumor effect as compared to vehicle” value (NCI-N87 tumors [1]; p<0.05 ANOVA) was “statistically significant antitumor effect”. The “mean change of tumor volume” value (NCI-N87 tumors [1]; vehicle 694.0±93.5) was −11.8±17.2 mm^3, the “mean change of body weight” value [2] was 3.8±2.1% and the body weight loss [3] was “about 12%”. For the same compound, the “Regressions CR (complete regression)” value (NCI-N87 tumors [4]; [6]) was “CR: 0”, the “Regressions PR (partial regression)” value (NCI-N87 tumors [4]; [6]) was “PR: 0,” and the “T/C or T/T0” value (NCI-N87 tumors [4]; Group 2 (8 animals): Compound A 12.5 mg/kg p.o. once daily, vs G1 ns) was 46%. For the same compound, the “Regressions CR (complete regression)” value (NCI-N87 tumors [4]; [7]) was “CR: 0”, the “Regressions PR (partial regression)” value (NCI-N87 tumors [4]; [7]) was “PR: 0,” and the “T/C or T/T0” value (NCI-N87 tumors [4]; Group 3 (6 animals): Compound A 25 mg/kg p.o. once daily, vs G1 *) was 12%. The “Regressions CR (complete regression)” value (NCI-N87 tumors [4]; [8]) was “CR: 0”, the “Regressions PR (partial regression)” value (NCI-N87 tumors [4]; [8]) was “PR: 0,” and the “T/C or T/T0” value (NCI-N87 tumors [4]; Group 4 (4 animals): Compound A 50 mg/kg p.o. once daily, stopped early, vs G1 ne) was 81%. For the same compound, the “Deaths NTR = non-treatment related” value [5, 9] was “NTR: 1”, the “Deaths TR = treatment-related” value [5, 9] was “TR: 1” and the “Deaths NTR = non-treatment related” value [5, 10] was “NTR: 1”. For the same compound, the “Deaths TR = treatment-related” value [5, 10] was “TR: 1” and the “Mean BW Nadir (lowest group mean BW)” value ([5]; Group 3: Compound A 25 mg/kg p.o. once daily, Day 14) was −8.4%.
